Assay results reported in patent US9102648B1, “Bioavailable diacylhydrazine ligands for modulating the expression of exogenous genes via an ecdysone receptor complex” (Intrexon Corporation, priority 2003, dated 2015).
Like-named read-outs stand apart in the source and are kept apart here.

Key:
[1] = molecular target: T1, Bombyx mori EcR (VP16 fusion, CVBE switch construct) (Bombyx mori, UniProt P49881); assay: Z3 Assay (HEK-293 cells with CVBE and 6XEcRE LacZ, β-galactosidase reporter); conditions: for Fold Induction, Z3 Assay, 3.3 uM: 3.3 uM ligand; for Fold Induction, Z3 Assay, 3.3 uM / Fold Induction, Z3 Assay, 33 uM: ligand treated / DMSO treated cells; for Fold Induction, Z3 Assay, 33 uM: 33 uM ligand; for Z3 assay Rel Max FI: maximum fold induction at any concentration relative to that of GS-E ligand; for fold induction at 3.3 µM: HEK293, read-out: Fold Induction, Z3 Assay, 3.3 uM; for fold induction at 33 µM: HEK293, read-out: Fold Induction, Z3 Assay, 33 uM
T1 sequence (P49881 86-606): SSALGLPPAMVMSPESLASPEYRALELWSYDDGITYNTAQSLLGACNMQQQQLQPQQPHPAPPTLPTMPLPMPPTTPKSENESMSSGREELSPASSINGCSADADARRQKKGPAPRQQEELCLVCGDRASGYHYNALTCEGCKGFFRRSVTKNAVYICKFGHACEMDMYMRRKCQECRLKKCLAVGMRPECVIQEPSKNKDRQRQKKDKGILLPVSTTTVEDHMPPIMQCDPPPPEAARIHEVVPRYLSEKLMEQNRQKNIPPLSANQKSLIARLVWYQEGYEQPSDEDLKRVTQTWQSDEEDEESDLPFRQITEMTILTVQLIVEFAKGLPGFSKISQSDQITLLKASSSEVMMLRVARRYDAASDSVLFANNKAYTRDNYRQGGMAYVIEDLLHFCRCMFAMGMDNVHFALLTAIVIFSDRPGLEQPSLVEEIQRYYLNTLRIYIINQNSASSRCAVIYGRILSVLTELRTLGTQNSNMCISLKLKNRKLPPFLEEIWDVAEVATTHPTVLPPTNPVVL
T1 sequence (P19793 1-462 partner): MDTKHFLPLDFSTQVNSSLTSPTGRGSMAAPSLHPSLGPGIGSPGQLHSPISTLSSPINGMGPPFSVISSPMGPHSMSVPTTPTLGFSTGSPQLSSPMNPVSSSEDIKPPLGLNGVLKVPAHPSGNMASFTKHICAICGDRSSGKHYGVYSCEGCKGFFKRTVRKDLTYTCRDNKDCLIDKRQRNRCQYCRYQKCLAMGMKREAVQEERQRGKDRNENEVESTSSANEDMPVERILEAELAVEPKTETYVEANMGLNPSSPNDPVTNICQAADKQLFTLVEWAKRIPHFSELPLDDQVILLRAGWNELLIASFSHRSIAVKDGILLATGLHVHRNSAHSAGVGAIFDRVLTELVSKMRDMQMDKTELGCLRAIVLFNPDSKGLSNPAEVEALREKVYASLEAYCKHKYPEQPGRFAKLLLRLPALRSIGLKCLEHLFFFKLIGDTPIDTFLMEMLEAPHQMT

[2] = molecular target: GAL4 DBD-CfEcR(DEF)/VP16AD-MmRXRE (Choristoneura fumiferana, UniProt O77240); assay: 13B3 Assay (CHO stable cell line, luciferase reporter); conditions: for Fold Induction, 13B3 Assay, 3.3 uM: 3.3 uM ligand; for Fold Induction, 13B3 Assay, 3.3 uM / Fold Induction, 13B3 Assay, 33 uM: RLU ligand treated / RLU DMSO treated cells; for Fold Induction, 13B3 Assay, 33 uM: 33 uM ligand; for 13B3 assay Rel Max FI: maximum fold induction at any concentration relative to that of GS-E ligand, CHO 13B3 cells; for fold induction at 3.3 µM: read-out: Fold Induction, 13B3 Assay, 3.3 uM; for fold induction at 33 µM: read-out: Fold Induction, 13B3 Assay, 33 uM
Summary of the method: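 CHO 13B3 clone stably expressing GAL4 DBD–CfEcR(DEF) and VP16AD–MmRXR(DE) with GAL4 RE–luciferase reporter; cells plated 24 h at 37 °C, then treated with ligands (DMSO stocks diluted 300-fold), 8 concentrations 33–0.01 μM.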

[3] = read-out: Z3 assay EC50, HEK-293 Z3 cells, β-galactosidase reporter, average of two wells
[4] = read-out: 13B3 EC50, CHO 13B3 stable cell line, luciferase reporter, 48 h, average of two wells

Row | SMILES | Fold Induction, Z3 Assay, 3.3 uM ([1]; average of two wells) | Fold Induction, Z3 Assay, 33 uM ([1]; average of two wells) | Z3 assay Rel Max FI ([1]; HEK-293 Z3 cells) | EC50 [1, 3] [nM] | Fold Induction, 13B3 Assay, 3.3 uM ([2]; average of two wells) | Fold Induction, 13B3 Assay, 33 uM ([2]; average of two wells) | 13B3 assay Rel Max FI [2] | EC50 [2, 4] [nM] | EC50 [1] [nM] | fold induction at 3.3 µM [1] | EC50 [2] [nM] | fold induction at 3.3 µM [2] | fold induction at 33 µM [1] | fold induction at 33 µM [2]
1 | Cc1cc(C)cc(C(=O)N(NC(=O)c2ccc3c(c2F)COCO3)C(C)(C)C)c1 [RG-115068] | 54 | 802 | 0.804 | 21000 | 2828 | 1500 | 0.722 | 926 | – | – | – | – | – | –
2 | CCc1ccc(C(=O)NN(C(=O)c2cc(OC)c(C)c(OC)c2)C(C)(C)C)c(F)c1 [RG-115077] | 294 | – | 0.911 | 389 | 932 | 199 | 1.509 | 847 | – | – | – | – | – | –
3 | CNCc1c(OC)cccc1C(=O)NN(C(=O)c1cc(C)cc(C)c1)C(C)(C)C [RG-115079, 3,5-dimethyl-benzoic acid N-tert-butyl-N′-(2-methylaminomethyl-3-methoxy-benzoyl)-hydrazide] | – | – | 0.02 | – | – | – | 0.20 | – | > 50000 | 1 | 20 | 3 | – | –
4 | CCc1c(OC)cccc1C(=O)NN(C(=O)c1cc(F)cc(C(F)(F)F)c1)C(C)(C)C [RG-115088] | 561 | 228 | 0.958 | 501 | 542 | 1048 | 0.709 | 1830 | – | – | – | – | – | –
5 | CCc1c(OC)cccc1C(=O)NN(C(=O)c1cnc(C)cn1)C(C)(C)C [RG-115091] | – | 61 | – | – | – | 1 | – | – | – | – | – | – | – | –
6 | CCc1c(OC)cccc1C(=O)NN(C(=O)c1cc(OC)c(O)c(OC)c1)C(C)(C)C [RG-115116] | 276 | – | 0.960 | 3310 | 2 | – | 1.172 | > 50000 | – | – | – | – | – | –
7 | COc1cccc(C(=O)NN(C(=O)c2cc(C)cc(C)c2)C(C)(C)C)c1CF [RG-115160] | 3 | 157 | 0.21 | > 50000 | 3 | 3 | 0 | > 50000 | – | – | – | – | – | –
8 | Cc1c(C(=O)NN(C(=O)c2cc(F)cc(C(F)(F)F)c2)C(C)(C)C)ccc2c1OCCO2 [RG-115169] | 443 | – | 0.956 | 347 | 405 | – | 0.618 | 497 | – | – | – | – | – | –
9 | COc1cccc(C(=O)NN(C(=O)c2cc(C)cc(C)c2)C(C)(C)C)c1C[S+](C)[O-] (centres unmarked) [RG-115172] | 1 | 216 | 0.32 | > 50000 | 1 | – | 0 | > 50000 | – | – | – | – | – | –
10 | CCc1c(OC)cccc1C(=O)NN(C(=O)c1cc(OC)c(OC(C)=O)c(OC)c1)C(C)(C)C [RG-115191] | 386 | – | 0.934 | 2400 | 3 | – | 1.513 | > 50000 | – | – | – | – | – | –
11 | COc1cc(C(=O)N(NC(=O)c2cccc(O)c2C)C(C)(C)C)cc(OC)c1C [RG-115220] | 298 | – | 0.591 | 871 | 5 | 1143 | 0.125 | > 50000 | – | – | – | – | – | –
12 | COc1cccc(C(=O)NN(C(=O)c2cc(C)cc(C)c2)C(C)(C)C)c1COC(C)=O [RG-115225, 3,5-dimethyl-benzoic acid N-tert-butyl-N′-(2-acetoxymethyl-3-methoxy-benzoyl)-hydrazide] | – | – | 0.32 | – | – | – | 0.08 | – | > 50000 | 3 | 580 | 3 | 571 | 8
13 | CCc1ccc(C(=O)NN(C(=O)c2cc(F)c(F)c(F)c2)C(C)(C)C)c(F)c1 [RG-115259] | 91 | – | 0.617 | 427 | 3513 | 2981 | 0.702 | 2700 | – | – | – | – | – | –
14 | CCc1c(C(=O)NN(C(=O)c2cccc(C(F)(F)F)c2)C(C)(C)C)ccc2c1OCO2 [RG-115260] | – | 526 | – | – | – | 13 | – | – | – | – | – | – | – | –
15 | CCc1c(OC)cccc1C(=O)NN(C(=O)c1cc(C)cc(C)c1)C(C)(C)COC(C)=O [RG-115310] | 199 | 960 | 0.781 | 2630 | 2 | 3044 | 0.676 | > 50000 | – | – | – | – | – | –
16 | CCc1c(OC)cccc1C(=O)NN(C(=O)c1cccc(C#N)c1)C(C)(C)C [RG-115327] | 279 | 325 | 0.662 | 2750 | – | 3785 | – | – | – | – | – | – | – | –
17 | CCc1c(OC)cccc1C(=O)NN(C(=O)c1cc(OC)c(OC)c(OC)c1)C(C)(C)C [RG-115329] | 259 | 430 | 0.892 | 2570 | – | 5644 | – | – | – | – | – | – | – | –
18 | CCc1c(OC)cccc1C(=O)NN(C(=O)c1ccccc1[N+](=O)[O-])C(C)(C)C [RG-115330] | 633 | 432 | 0.860 | 186 | 1995 | 3577 | 0.711 | 5690 | – | – | – | – | – | –
19 | Cc1c(C(=O)NN(C(=O)c2cccc(F)c2)C(C)(C)C)ccc2c1OCCO2 [RG-115350] | 499 | – | 0.935 | 309 | 450 | – | 0.711 | 795 | – | – | – | – | – | –
20 | COc1cccc(C(=O)NN(C(=O)c2cc(C)cc(C)c2)C(C)(C)C)c1CSC [RG-115358, 3-Methoxy-2-methylsulfanylmethyl-benzoic acid N′-tert-butyl-N′-(3,5-dimethyl-benzoyl)-hydrazide] | – | – | 0.48 | – | – | – | 0.20 | – | 9450 | 33 | > 50000 | 1 | 769 | 584
21 | COc1cccc(C(=O)NN(C(=O)c2cc(C)cc(C)c2)C(C)(C)C)c1CO [RG-115371, 3,5-dimethyl-benzoic acid N-tert-butyl-N′-(2-hydroxymethyl-3-methoxy-benzoyl)-hydrazide] | – | – | 0.76 | – | – | – | 1.44 | – | 3020 | 249 | > 50000 | 1 | 1770 | 1090
22 | COc1cccc(C(=O)NN(C(=O)c2cc(C)cc(C)c2)C(C)(C)C)c1CS(C)(=O)=O [RG-115408, 2-methanesulfonylmethyl-3-methoxy-benzoic acid N′-tert-butyl-N′-(3,5-dimethyl-benzoyl)-hydrazide] | – | – | 0.01 | – | – | – | 0 | – | > 50000 | 1 | > 50000 | 1 | 3 | –
